Reference: US9187471B2, “Pyrido [4,3-b] indole and pyrido [3,4-b] indole derivatives and methods of use” (Medivation Technologies, Inc., priority 2010, dated 2015)
Like-named read-outs stand apart in the source and are kept apart here.

How the values were obtained:
[1] = biological target: T1, human recombinant serotonin (5-Hydroxytryptamine) 5-HT2C receptor (Homo sapiens, UniProt P28335); test: Serotonin 5-HT2C radioligand binding ([3H]Mesulergine); details: compound at 0.1 μM; read-out: Inhibition of ligand binding, Serotonin 5-HT2C (percent inhibition of specific binding)
T1 construct: expressed in transfected cells; host or cells: CHO-K1
T1 sequence (P28335 33-458): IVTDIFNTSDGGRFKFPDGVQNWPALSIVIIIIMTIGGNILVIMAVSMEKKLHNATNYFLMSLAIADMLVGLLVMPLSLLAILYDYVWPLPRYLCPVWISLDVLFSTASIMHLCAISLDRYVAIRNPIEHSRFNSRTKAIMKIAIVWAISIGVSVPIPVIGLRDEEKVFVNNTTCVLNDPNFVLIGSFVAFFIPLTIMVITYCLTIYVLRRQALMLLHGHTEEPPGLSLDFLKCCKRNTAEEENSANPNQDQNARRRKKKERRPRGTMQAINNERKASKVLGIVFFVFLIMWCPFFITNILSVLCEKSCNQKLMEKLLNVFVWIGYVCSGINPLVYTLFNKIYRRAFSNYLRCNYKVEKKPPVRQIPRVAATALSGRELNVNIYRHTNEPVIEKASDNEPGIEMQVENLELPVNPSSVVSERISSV
Experimental: Compounds of the invention were incubated with 1 nM [^3H]Mesulergine for 60 min at 25° C. Non-specific binding was estimated in the presence of 1 μM Mianserin. Receptor proteins were filtered and washed, the filters were then counted to determine [^3H]Mesulergine specifically bound.

[2] = biological target: T2, human recombinant histamine H1 receptor (Homo sapiens, UniProt P35367); test: Histamine H1 radioligand binding ([3H]Pyrilamine); details: read-out: Histamine H1 Binding (1 μM), percent inhibition of specific binding; compound at 1 μM; 1.2 nM [3H]Pyrilamine
T2 construct: expressed in transfected cells; host or cells: CHO-K1
Experimental: To evaluate in radioligand binding assays the activity of compounds of the invention, human recombinant histamine H1 receptor expressed in Chinese hamster ovary (CHO) K1 cells (De Backer, M. et al, Biochem. Biophys. Res. Comm. 197(3):1601, 1993) in a modified Tris-HCl buffer (50 mM Tris-HCl, pH 7.4, 2 mM MgCl2, 100 mM NaCl, 250 mM Sucrose) was used. […] Non-specific binding was estimated in the presence of 1 μM Pyrilamine. Receptor proteins were filtered and washed, the filters were then counted to determine [^3H]Pyrilamine specifically bound. […] Biochemical assay results are presented as the percent inhibition of specific binding in Table 2.

[3] = biological target: T3, rat adrenergic α1A receptor (Rattus norvegicus, UniProt P43140); test: Adrenergic α1A radioligand binding ([3H]Prazosin); details: read-out: Adrenergic (0.1 μM) a1A, percent inhibition of specific binding; compound at 0.1 μM; 0.25 nM [3H]Prazosin
T3 construct: rat adrenergic α1A receptor obtained from Wistar Rat submaxillary glands; from tissue; host or cells: Wistar rat submaxillary glands
T3 sequence (P43140 1-466): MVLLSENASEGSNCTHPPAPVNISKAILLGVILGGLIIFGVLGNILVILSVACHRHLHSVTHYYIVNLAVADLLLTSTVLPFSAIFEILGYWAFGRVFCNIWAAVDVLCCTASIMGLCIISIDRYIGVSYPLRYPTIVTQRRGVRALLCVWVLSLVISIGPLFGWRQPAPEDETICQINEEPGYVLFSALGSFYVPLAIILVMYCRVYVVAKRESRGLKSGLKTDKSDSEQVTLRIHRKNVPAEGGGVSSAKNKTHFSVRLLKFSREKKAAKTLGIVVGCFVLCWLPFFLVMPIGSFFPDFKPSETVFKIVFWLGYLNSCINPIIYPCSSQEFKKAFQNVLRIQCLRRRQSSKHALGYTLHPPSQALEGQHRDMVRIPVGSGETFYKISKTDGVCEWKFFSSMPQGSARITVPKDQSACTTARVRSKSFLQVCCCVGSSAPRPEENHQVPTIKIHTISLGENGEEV
Experimental: To evaluate in radioligand binding assays the activity of compounds of the invention, rat adrenergic α1A receptor obtained from Wistar Rat submaxillary glands (Michel, A. et al, Br. J. Pharmacol. 98:883, 1989) in a modified Tris-HCl buffer (50 mM Tris-HCl buffer, pH 7.4, 0.5 mM EDTA) was used. Compounds of the invention were incubated with 0.25 nM [^3H]Prazosin for 60 min at 25° C. Non-specific binding was estimated in the presence of 10 μM phentolamine Receptor proteins were filtered and washed, the filters were then counted to determine [^3H]Prazosin specifically bound. […] Compounds of the invention were tested in this biochemical assay and percent inhibition of specific binding was determined.

[4] = biological target: T4, human recombinant serotonin (5-Hydroxytryptamine) 5-HT6 receptor (Homo sapiens, UniProt P50406); test: Serotonin 5-HT6 radioligand binding ([3H]LSD); details: compound at 0.1 μM; for inhibition at 0.1 µM: read-out: Inhibition of ligand binding, Serotonin 5-HT6 (percent inhibition of specific binding)
T4 construct: expressed in transfected cells; host or cells: HeLa
From the text: Receptor proteins were filtered and washed, the filters were then counted to determine [3H]LSD specifically bound.

[5] = biological target: T5, human recombinant serotonin (5-Hydroxytryptamine) 5-HT2A receptor (Homo sapiens, UniProt P28223); test: Serotonin 5-HT2A radioligand binding ([3H]Ketanserin); details: read-out: Inhibition of ligand binding, Serotonin 5-HT2A (percent inhibition of specific binding)
T5 construct: expressed in transfected cells; host or cells: CHO-K1
Experimental: Compounds of the invention were incubated with 0.5 nM [^3H]Ketanserin for 60 min at 25° C. Non-specific binding was estimated in the presence of 1 μM Mianserin. Receptor proteins were filtered and washed, the filters were then counted to determine [^3H]Ketanserin specifically bound.

[6] = biological target: T6, human recombinant dopamine D2L receptor (Homo sapiens, UniProt P14416); test: Dopamine D2L radioligand binding ([3H]Spiperone); details: 0.16 nM [3H]Spiperone; for inhibition at 1 µM: read-out: Dopamine D2L (1 μM), percent inhibition of specific binding, compound at 1 μM
T6 construct: expressed in transfected cells; host or cells: CHO
Experimental: Non-specific binding was estimated in the presence of 10 μM Haloperidol. Receptor proteins were filtered and washed, the filters were then counted to determine [^3H]Spiperone specifically bound.

[7] = biological target: T7, human recombinant adrenergic α2C receptor (Homo sapiens, UniProt P18825); test: Adrenergic α2C radioligand binding ([3H]MK-912); details: read-out: Adrenergic (0.1 μM) a2C, percent inhibition of specific binding; compound at 0.1 μM; 1 nM [3H]MK-912
T7 construct: expressed in transfected cells; host or cells: insect Sf9 cells
T7 sequence (P18825 1-462): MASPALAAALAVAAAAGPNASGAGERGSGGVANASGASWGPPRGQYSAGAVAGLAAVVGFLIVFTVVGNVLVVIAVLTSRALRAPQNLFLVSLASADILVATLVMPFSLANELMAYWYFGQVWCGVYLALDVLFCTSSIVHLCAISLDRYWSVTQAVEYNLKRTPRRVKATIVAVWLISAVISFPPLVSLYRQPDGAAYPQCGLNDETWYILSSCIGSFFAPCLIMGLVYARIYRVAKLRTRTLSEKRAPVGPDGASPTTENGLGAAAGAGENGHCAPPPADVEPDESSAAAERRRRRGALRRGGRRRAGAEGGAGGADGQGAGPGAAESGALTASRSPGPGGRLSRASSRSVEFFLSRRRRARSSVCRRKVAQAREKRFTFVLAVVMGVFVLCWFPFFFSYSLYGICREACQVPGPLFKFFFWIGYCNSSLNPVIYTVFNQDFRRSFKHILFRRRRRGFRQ
Experimental: To evaluate in radioligand binding assays the activity of compounds of the invention, human recombinant adrenergic α2C receptor expressed in insect Sf9 cells (Uhlen, S. et al, J. Pharmacol. Exp. Ther. 271:1558, 1994) in a modified Tris-HCl buffer (50 mM Tris-HCl, pH 7.4, 12.5 mM MgCl2, 2 mM EDTA) was used. Compounds of the invention were incubated with 1 nM [^3H]MK-912 for 60 min at 25° C. Non-specific binding was estimated in the presence of 10 μM WB-4101. Receptor proteins were filtered and washed, the filters were then counted to determine [^3H]MK-912 specifically bound. […] Compounds of the invention were tested in this biochemical assay and percent inhibition of specific binding was determined.

[8] = biological target: T8, human recombinant serotonin (5-Hydroxytryptamine) 5-HT7 receptor (Homo sapiens, UniProt P34969); test: Serotonin 5-HT7 radioligand binding ([3H]LSD); details: compound at 0.1 μM; for inhibition at 0.1 µM: read-out: Inhibition of ligand binding, Serotonin 5-HT7 (percent inhibition of specific binding)
T8 construct: expressed in transfected cells; host or cells: CHO
Experimental: Lysergic acid diethylamide (LSD) for 120 min. at 25° C. […] Receptor proteins were filtered and washed, the filters were then counted to determine [^3H]LSD specifically bound.

[9] = biological target: T9, human recombinant serotonin (5-Hydroxytryptamine) 5-HT5A receptor (Homo sapiens, UniProt P47898); test: Serotonin 5-HT5A radioligand binding ([3H]LSD); details: compound at 0.1 μM
T9 construct: expressed in transfected cells; host or cells: CHO-K1
Experimental: Compounds of the invention were incubated with 1.7 nM [^3H]Lysergic acid diethylamide (LSD) for 60 min at 37° C. […] Receptor proteins were filtered and washed, the filters were counted to determine [^3H]LSD specifically bound.

T4 sequence (P50406 whole entry): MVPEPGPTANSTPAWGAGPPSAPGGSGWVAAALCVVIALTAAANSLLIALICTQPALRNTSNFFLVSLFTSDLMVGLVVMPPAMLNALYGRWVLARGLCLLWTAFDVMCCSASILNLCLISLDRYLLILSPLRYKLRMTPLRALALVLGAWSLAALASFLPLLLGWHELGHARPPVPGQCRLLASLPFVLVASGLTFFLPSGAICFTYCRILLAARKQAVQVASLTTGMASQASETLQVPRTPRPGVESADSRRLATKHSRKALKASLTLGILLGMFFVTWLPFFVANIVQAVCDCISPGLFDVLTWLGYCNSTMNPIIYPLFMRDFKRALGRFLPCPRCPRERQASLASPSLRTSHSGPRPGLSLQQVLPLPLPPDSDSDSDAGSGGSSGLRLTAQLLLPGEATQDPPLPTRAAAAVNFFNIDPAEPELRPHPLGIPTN
T8 sequence (P34969 whole entry): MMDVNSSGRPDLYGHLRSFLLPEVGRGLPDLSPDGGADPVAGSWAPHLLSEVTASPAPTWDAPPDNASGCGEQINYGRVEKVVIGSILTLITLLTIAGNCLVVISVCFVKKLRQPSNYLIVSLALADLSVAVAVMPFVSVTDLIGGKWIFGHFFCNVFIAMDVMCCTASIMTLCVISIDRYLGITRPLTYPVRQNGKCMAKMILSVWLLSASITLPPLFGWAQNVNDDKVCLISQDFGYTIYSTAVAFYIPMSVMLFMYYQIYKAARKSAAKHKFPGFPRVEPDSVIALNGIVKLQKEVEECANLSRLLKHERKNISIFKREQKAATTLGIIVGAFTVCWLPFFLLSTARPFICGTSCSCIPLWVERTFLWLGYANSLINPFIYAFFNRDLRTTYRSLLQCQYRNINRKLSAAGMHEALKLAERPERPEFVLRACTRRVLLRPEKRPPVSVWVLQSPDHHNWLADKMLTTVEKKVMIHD
T5 sequence (P28223 whole entry): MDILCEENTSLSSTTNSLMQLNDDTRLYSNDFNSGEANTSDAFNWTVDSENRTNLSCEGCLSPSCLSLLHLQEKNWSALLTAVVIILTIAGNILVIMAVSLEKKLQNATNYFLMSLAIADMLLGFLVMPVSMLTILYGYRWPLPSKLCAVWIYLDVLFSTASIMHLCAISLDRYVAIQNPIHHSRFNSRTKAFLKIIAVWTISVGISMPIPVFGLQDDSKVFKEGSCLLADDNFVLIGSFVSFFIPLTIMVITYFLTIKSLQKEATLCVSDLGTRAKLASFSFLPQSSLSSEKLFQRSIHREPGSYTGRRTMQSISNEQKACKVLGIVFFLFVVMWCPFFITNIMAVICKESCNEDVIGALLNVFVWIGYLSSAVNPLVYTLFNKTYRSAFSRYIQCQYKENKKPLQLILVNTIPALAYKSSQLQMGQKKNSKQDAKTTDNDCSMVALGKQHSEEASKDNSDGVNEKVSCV
T6 sequence (P14416 whole entry): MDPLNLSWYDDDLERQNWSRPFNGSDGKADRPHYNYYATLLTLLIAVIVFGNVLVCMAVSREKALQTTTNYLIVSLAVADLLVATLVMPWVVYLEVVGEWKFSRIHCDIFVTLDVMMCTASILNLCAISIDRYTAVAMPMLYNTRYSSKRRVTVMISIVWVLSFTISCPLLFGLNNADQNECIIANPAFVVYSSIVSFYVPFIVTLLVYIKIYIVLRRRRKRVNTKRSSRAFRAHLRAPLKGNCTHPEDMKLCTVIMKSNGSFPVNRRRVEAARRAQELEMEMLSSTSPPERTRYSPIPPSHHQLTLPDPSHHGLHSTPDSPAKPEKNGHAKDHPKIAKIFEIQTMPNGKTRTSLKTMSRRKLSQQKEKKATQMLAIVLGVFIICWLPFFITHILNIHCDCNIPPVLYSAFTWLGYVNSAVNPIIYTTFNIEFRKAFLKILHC
T2 sequence (P35367 whole entry): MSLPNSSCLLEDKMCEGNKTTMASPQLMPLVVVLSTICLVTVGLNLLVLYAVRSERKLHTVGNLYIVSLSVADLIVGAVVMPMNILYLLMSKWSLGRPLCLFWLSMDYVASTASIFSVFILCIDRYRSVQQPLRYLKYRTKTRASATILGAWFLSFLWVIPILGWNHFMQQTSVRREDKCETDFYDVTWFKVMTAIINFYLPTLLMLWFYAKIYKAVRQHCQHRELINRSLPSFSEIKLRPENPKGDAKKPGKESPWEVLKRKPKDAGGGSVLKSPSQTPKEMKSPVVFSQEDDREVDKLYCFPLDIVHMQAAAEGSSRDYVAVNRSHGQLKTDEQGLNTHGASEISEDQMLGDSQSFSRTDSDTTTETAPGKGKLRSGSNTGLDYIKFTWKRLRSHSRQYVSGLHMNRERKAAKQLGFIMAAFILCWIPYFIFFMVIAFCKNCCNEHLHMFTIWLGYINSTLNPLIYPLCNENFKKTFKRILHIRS
T9 sequence (P47898 whole entry): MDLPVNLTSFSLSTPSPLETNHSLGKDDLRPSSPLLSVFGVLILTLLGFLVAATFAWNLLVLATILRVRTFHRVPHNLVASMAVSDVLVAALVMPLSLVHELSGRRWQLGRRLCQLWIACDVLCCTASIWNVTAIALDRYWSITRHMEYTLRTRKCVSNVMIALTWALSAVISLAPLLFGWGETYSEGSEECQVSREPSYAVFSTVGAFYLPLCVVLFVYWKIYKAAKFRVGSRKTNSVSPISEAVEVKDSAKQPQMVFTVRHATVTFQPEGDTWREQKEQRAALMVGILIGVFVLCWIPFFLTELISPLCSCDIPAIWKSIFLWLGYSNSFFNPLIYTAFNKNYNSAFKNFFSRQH

Compound | inhibition at 0.1 µM [1] [%] | inhibition at 1 µM [2] [%] | inhibition at 0.1 µM [3] [%] | inhibition at 0.1 µM [4] [%] | inhibition at 0.1 µM ([5]; compound at 0.1 μM) [%] | inhibition at 1 µM [6] [%] | inhibition at 0.1 µM [7] [%] | inhibition at 0.1 µM [8] [%] | inhibition at 0.1 µM ([9]; read-out: Inhibition of ligand binding, Serotonin 5-HT5A (percent inhibition of specific binding)) [%] | inhibition at 0.1 µM ([6]; read-out: Dopamine D2L (0.1 μM), percent inhibition of specific binding, compound at 0.1 μM) [%] | Inhibition of ligand binding, Serotonin 5-HT5A (percent inhibition of specific binding) [9] [%] | Inhibition of ligand binding, Serotonin 5-HT6 (percent inhibition of specific binding) [4] [%] | inhibition at 0.1 µM [5] [%] | Inhibition of ligand binding, Serotonin 5-HT7 (percent inhibition of specific binding) [8] [%]
Cc1ccc2c(c1)c1c(n2-c2cccs2)CCN(C)C1 [Compound 16, 2,8-dimethyl-5-thiophen-2-yl-2,3,4,5-tetrahydro-1H-pyrido[4,3-b]indole] | 89 | 86 | 7 | 74 | 94 | 49 | 17 | 62 |  |  |  |  |  | 
Cc1cc(C)c2c(c1)c1c(n2-c2cscc2-c2ccncc2)CCN(C)C1 [Compound No. 149] |  | -5 | 14 | 93 | 45 |  | 2 | 11 | -13 | 5 |  |  |  | 
Cc1ccc2c(c1)c1c(n2-c2ccoc2)CCN(C)C1 [Compound 15, 5-furan-3-yl-2,8-dimethyl-2,3,4,5-tetrahydro-1H-pyrido[4,3-b]indole] | 77 | 80 | 28 | 51 | 72 | 19 | 7 | 57 |  |  |  |  |  | 
Cc1ccc2c(c1)c1c(n2-c2ccsc2)CCN(C)C1 [Compound 14, 2,8-dimethyl-5-thiophen-3-yl-2,3,4,5-tetrahydro-1H-pyrido[4,3-b]indole] | 95 | 86 | 30 | 82 | 97 | 50 | 4 | 61 |  |  |  |  |  | 
Cc1ccc2c(c1)c1c(n2-c2ccccc2-c2ccc(O)nc2)CCN(C)C1 [Compound No. 80, 5-(2-(2,8-dimethyl-3,4-dihydro-1H-pyrido[4,3-b]indol-5(2H)-yl)phenyl)pyridin-2-ol] | 11 | 28 | 15 |  |  | 2 | -6 |  |  |  | 25 | −1 | 28 | 41
Cc1ccc2c(c1)c1c(n2-c2ccccc2-c2ccc(F)cc2)CCN(C)C1 [Compound 10, 5-(4′-fluorobiphenyl-2-yl)-2,8-dimethyl-2,3,4,5-tetrahydro-1H-pyrido[4,3-b]indole] | 94 | 82 | 59 | 57 | 93 | 26 | 67 | 73 |  |  |  |  |  | 
Cc1ccc2c(c1)c1c(n2-c2ccccc2-c2ccncc2)CCN(C)C1 [Compound 5, 2,8-dimethyl-5-(2-pyridin-4-yl-phenyl)-2,3,4,5-tetrahydro-1H-pyrido[4,3-b]indole] | 81 | 38 | 24 | 26 | 83 | 2 | 11 | 64 |  |  |  |  |  | 
